In publication PMC10545747, “Development of cyclopeptide inhibitors of cGAS targeting protein-DNA interaction and phase separation” (Nature Communications, 2023):
Several values for one entry are separate records, joined by “and”; a condition that tells them apart may be missing. Equal entries are not always repeated. Entries after “also recorded” stand apart in the source; their conditions may differ. Square brackets hold non-standard residues; d marks the D form. Peptide text beside a SMILES is read from it.

Experiments:
[1] = test system: dsDNA-stimulated THP1 cells; test: qPCR of IFNB1/CXCL10/IL6 mRNA in THP1 cells stimulated by dsDNA (ISD, HSV60mer); type: cell-based, human; conditions: for IFNB1 mRNA, qPCR, Fig. 2b: 10 μM
Excerpt: To screen direct cGAS inhibitors targeting protein-DNA interface from our developed focused library of macrocyclic peptides, we applied an RNA-based fluorescent biosensor for 2’,3’-cGAMP to detect cGAS activity in vitro (Supplementary Fig. 1a)[49]. The formation of 2’,3’-cGAMP from ATP and GTP was catalyzed by recombinant human cGAS enzyme (hcGAS-ΔN, residues 147–522, Supplementary Fig. 1b) in the presence of ISD (interferon stimulatory DNA, a 45-bp dsDNA), which was readily quantified by the RNA-based fluorescent biosensor and was further confirmed by ion exchange chromatography (Supplementary Fig. 1c). […] Subsequently, a total of 90 macrocyclic peptides were screened at a concentration of 20 μM (Fig. 1a and Supplementary Fig. 1e), and 4 hits (XQ2, XQ8, XQ19, and XQ46) were obtained for further testing at a cut-off of 40% inhibition (Supplementary Table 1). To evaluate the inhibitory effect of the hits against cGAS in cells, we employed real-time quantitative PCR (qPCR) to examine mRNA levels of IFNΒ1 in THP1 cells. The reported cGAS inhibitor RU.521 was used as the positive control, and the non-active peptide XQ28 in the screening assay was used as the negative control. […] The inhibition of cGAS by these hits was further confirmed in the reporter cell line THP1-Lucia ISG (Invivogen) that expresses secreted luciferase induced by an IRF3-inducible ISG54 promoter (Fig. 1c). The discrepancy between the inhibitory effect of the hits in protein and cellular assays may be attributed to their different cellular permeability.
(§1) The indicated cells were stimulated with either ISD (Sangon Biotech), HSV-1 (Provided by Dr. Zhengfan Jiang), HSV60mer (Sangon Biotech), SATE-cddA[70], 2’3’-cGAMP (Invivogen, Cat# tlrl-nacga23-1), ADU-S100 (MedChemExpress, Cat# HY-12885A) or Poly(I:C) (Invivogen, Cat# tlrl-pic) after XQ2 or XQ2B treatment. Total RNA was isolated from indicated cells that incubated with the drugs for indicated time or mice tissues by using NucleoZOL reagent (MACHEREY-NAGEL) according to the manufacturer’s instructions. The quantifications of mRNA levels were carried out by real-time PCR using a PerfectStart® Uni RT&qPCR Kit (TransGen Biotech) on the QuantStudio 5 qPCR machine (Applied Biosystems). Samples were carried out in triplicate and the target CT values were normalized to GAPDH CT values. Primers of qPCR used in this study can be found in Supplementary Table S2.

[2] = test system: THP1 cells stimulated with poly (I: C) (TLR3 and RIG-I/MDA-5 pathways); test: qPCR of IFNB1 mRNA in THP1 cells stimulated by poly (I: C); type: cell-based, human
Excerpt: We next evaluated the inhibitory effect of XQ2 against cGAS in murine fibroblast L929 cells, macrophage RAW264.7 cells and primary bone marrow-derived macrophages (BMDMs) from C57BL/6 mice.
as §1

primary human PBMCs = test: qPCR of IFNB1 and IL6 mRNA in ISD-stimulated PBMCs; type: cell-based; parameters: key to IFNB1 mRNA, qPCR, Fig. 2c / IL6 mRNA, qPCR, Fig. 2c / IFNB1 mRNA (Fig. S7f) / IL6 mRNA (Fig. S7f): relative mRNA level, target CT normalized to GAPDH CT; conditions: 10 μM
Description: as §1

[3] = test system: macrophage RAW264.7 cells; test: qPCR of Ifnb1/Cxcl10/Il6 mRNA in RAW264.7 cells (ISD or HSV-1); type: cell-based, mouse; parameters: key to Ifnb1 mRNA (Fig. S2c) / Cxcl10 mRNA (Fig. S2c) / Ifnb1 mRNA (Fig. S2d) / Cxcl10 mRNA (Fig. S2d) / Ifnb1 mRNA (Fig. S7g) / Cxcl10 mRNA (Fig. S7g) / Il6 mRNA (Fig. S7g): mRNA level normalized to GAPDH (relative expression)
Description: as §1, with “S2. […]” for “S2.”
(c) L929, p = 0.0005 (Ifnb1),
BMDMs, p = 0.0001 (Ifnb1), p < 0.0001 (Cxcl10).
representative of three independent experiments in (a-g). (Data are presented as mean ± SD, n = 3 independent
Source data are provided as a Source Data file.

Hela cells = test: HSV-1 cytopathogenic effect, CCK-8 viability (rebuttal Fig. R1); type: cell-based, human; conditions: 10 μM
Description: We tested the effect of XQ2 on human cervical cancer
HSV-1 infection given that epithelial cells are generally weak responders of cGAS-
cells and THP1 cells were pretreated for 3 h with DMSO or XQ2 (10 μM), followed by
the indicated titer of HSV-1 infection. The cell v iability was measured by CCK-8 assay.

CC(C)C[C@@H]1NC(=O)[C@H](CCCNC(=N)N)NC(=O)[C@H](C(C)C)NC(=O)[C@@H]2CCCN2C(=O)[C@@H](Cc2ccccc2)NC(=O)[C@H](CC(C)C)NC(=O)[C@H](CCCNC(=N)N)NC(=O)[C@H](C(C)C)NC(=O)[C@H](C)NC(=O)[C@@H](Cc2ccccc2)NC1=O [XQ2, Cyclo (LfAVRLfPVR)] (cyclo(L[dF]AVRL[dF]PVR))
CXCL10 mRNA (Fig. S2a) ([1]; ISD, XQ2 0.31 μM): 608.071 and 547.477 and 553.882
IFNB1 mRNA (Fig. S2a) ([1]; ISD, XQ2 0.31 μM): 85.2902 and 89.4127 and 103.445
IL6 mRNA (Fig. S2a) ([1]; ISD, XQ2 0.31 μM): 53.8661 and 62.1977 and 48.2598
CXCL10 mRNA (Fig. S2a) ([1]; ISD, XQ2 0.63 μM): 550.9 and 499.514 and 482.522
IFNB1 mRNA (Fig. S2a) ([1]; ISD, XQ2 0.63 μM): 75.3551 and 77.8155 and 85.6546
IL6 mRNA (Fig. S2a) ([1]; ISD, XQ2 0.63 μM): 45.9203 and 56.9516 and 44.1827
CXCL10 mRNA (Fig. S2a) ([1]; ISD, XQ2 1.25 μM): 440.727 and 424.983 and 441.062
IFNB1 mRNA (Fig. S2a) ([1]; ISD, XQ2 1.25 μM): 54.4915 and 50.1897 and 58.943
IL6 mRNA (Fig. S2a) ([1]; ISD, XQ2 1.25 μM): 59.6412 and 54.8577 and 42.9996
CXCL10 mRNA (Fig. S2a) ([1]; ISD, XQ2 2.5 μM): 320.996 and 337.289 and 307.846
IFNB1 mRNA (Fig. S2a) ([1]; ISD, XQ2 2.5 μM): 46.4673 and 40.8489 and 46.9306
IL6 mRNA (Fig. S2a) ([1]; ISD, XQ2 2.5 μM): 51.498 and 49.1657 and 30.2376
CXCL10 mRNA (Fig. S2a) ([1]; ISD, XQ2 5 μM): 341.101 and 357.811 and 355.382
IFNB1 mRNA (Fig. S2a) ([1]; ISD, XQ2 5 μM): 26.7077 and 29.7394 and 30.8514
IL6 mRNA (Fig. S2a) ([1]; ISD, XQ2 5 μM): 24.0755 and 29.7141 and 20.0828
CXCL10 mRNA (Fig. S2a) ([1]; ISD, XQ2 10 μM): 329.162 and 346.227 and 299.128
IFNB1 mRNA (Fig. S2a) ([1]; ISD, XQ2 10 μM): 10.6974 and 11.3948 and 12.0973
IL6 mRNA (Fig. S2a) ([1]; ISD, XQ2 10 μM): 18.3875 and 16.237 and 20.2076
CXCL10 mRNA (Fig. S2a) ([1]; Mock, XQ2 0.31 μM): 0.6255 and 0.7855 and 0.8542
IFNB1 mRNA (Fig. S2a) ([1]; Mock, XQ2 0.31 μM): 0.7527 and 0.6452 and 0.8722
IL6 mRNA (Fig. S2a) ([1]; Mock, XQ2 0.31 μM): 0.9875 and 1.125 and 1.458
CXCL10 mRNA (Fig. S2a) ([1]; Mock, XQ2 0.63 μM): 0.4588 and 0.432 and 0.4044
IFNB1 mRNA (Fig. S2a) ([1]; Mock, XQ2 0.63 μM): 0.713 and 0.5919 and 0.8053
IL6 mRNA (Fig. S2a) ([1]; Mock, XQ2 0.63 μM): 1.48 and 1.078 and 1.222
CXCL10 mRNA (Fig. S2a) ([1]; Mock, XQ2 1.25 μM): 1.308 and 1.359 and 1.615
IFNB1 mRNA (Fig. S2a) ([1]; Mock, XQ2 1.25 μM): 0.9026 and 1.107 and 1.382
CXCL10 mRNA (Fig. S2a) ([1]; Mock, XQ2 2.5 μM): 3.137 and 2.991 and 2.833
IFNB1 mRNA (Fig. S2a) ([1]; Mock, XQ2 2.5 μM): 1.426 and 1.751 and 1.799
IL6 mRNA (Fig. S2a) ([1]; Mock, XQ2 2.5 μM): 2.387 and 2.459 and 3.439
CXCL10 mRNA (Fig. S2a) ([1]; Mock, XQ2 5 μM): 1.923 and 2.134 and 2.246
IFNB1 mRNA (Fig. S2a) ([1]; Mock, XQ2 5 μM): 1.17 and 1.093 and 1.0788
CXCL10 mRNA (Fig. S2a) ([1]; Mock, XQ2 10 μM): 4.593 and 4.941 and 4.3739
IFNB1 mRNA (Fig. S2a) ([1]; Mock, XQ2 10 μM): 1.523 and 2.285 and 2.284
IL6 mRNA (Fig. S2a) ([1]; Mock, XQ2 10 μM): 4.656 and 4.111 and 3.925
dsDNA/ISD-induced IFNB1, CXCL10, IL6 expression ([1]; THP1): inhibited the expression level of IFNΒ1 and CXCL10, as well as IL6; also recorded: best potency in the cellular assays
IFNB1 mRNA, qPCR, Fig. 2b ([1]; THP1, ISD): 72.2364 and 85.3888 and 75.3743
IFNB1 mRNA, qPCR, Fig. 2b ([1]; THP1, Mock (no stimulus)): 1.523 and 2.285 and 2.284
IFNB1 mRNA, qPCR, Fig. 1b ([1]; THP1, dsDNA 6 h, hits 10 μM, replicate values): 24.5085 and 22.546 and 27.0371
cellular efficacy against cGAS ([1]; as stated in the rebuttal letter, cellular assays): < 10 µM
poly (I: C)-induced IFNB1 expression ([2]; THP1, 10 μM): did not affect the expression of IFNΒ1 induced by poly (I: C)
IFNB1 mRNA, qPCR, Fig. 2b ([2]; THP1, Poly(I:C), 10 μM): 400.477 and 440.107 and 373.524
ISD-induced IFNB1 and IL6 expression in PBMCs (primary human PBMCs): markedly suppressed the expression of IFNB1 and IL6; also recorded: significantly inhibit the activation of cGAS induced by ISD
IFNB1 mRNA, qPCR, Fig. 2c (primary human PBMCs; PBMCs, ISD): 362.804 and 380.938 and 448.513
IL6 mRNA, qPCR, Fig. 2c (primary human PBMCs; PBMCs, ISD): 261.548 and 423.427 and 399.836
Ifnb1 and Cxcl10 expression induced by ISD and HSV-1 ([3]; RAW264.7, 10 μM): significantly inhibited the expression of Ifnb1 and its downstream gene Cxcl10
Cxcl10 mRNA (Fig. S2d) ([3]; RAW264.7, HSV-1+XQ2): 226.869 and 260.086 and 204.298
Ifnb1 mRNA (Fig. S2d) ([3]; RAW264.7, HSV-1+XQ2): 1317.92 and 1543.45 and 1644.53
Cxcl10 mRNA (Fig. S2c) ([3]; RAW264.7, ISD+XQ2): 1626.72 and 1806.59 and 1855.72
Ifnb1 mRNA (Fig. S2c) ([3]; RAW264.7, ISD+XQ2): 12350.6 and 12954.9 and 11525.9
Cxcl10 mRNA (Fig. S2c) ([3]; RAW264.7, XQ2 alone): 3.511 and 3.569 and 3.235
Cxcl10 mRNA (Fig. S2d) ([3]; RAW264.7, XQ2 alone): 3.511 and 3.569 and 3.235
Ifnb1 mRNA (Fig. S2c) ([3]; RAW264.7, XQ2 alone): 1.57 and 1.726 and 1.836
Ifnb1 mRNA (Fig. S2d) ([3]; RAW264.7, XQ2 alone): 1.57 and 1.726 and 1.836
HSV-1 cytopathogenic effect in Hela cells (Hela cells): further enhanced the CPE
